Source: patent US12516041B2, “Crystal forms of GLP-1R agonists and uses thereof” (QILU REGOR THERAPEUTICS INC., priority 2020, dated 2026)
Values after ≈ are worked out from the molar mass of the structure shown. Read-outs that look alike come from different tables or passages of the source.

Assays:
Format in all cases: physicochemical
[1] = Solid-state stability study (HPLC purity, XRPD)
Experimental: XRPD patterns were identified with an X-ray diffractometer (PANalytical Empyrean). The system was equipped with PIXcel^1D detector. Samples were scanned from 3 to 40° 2θ, at a step size of 0.013° 2θ. The tube voltage and current were 45 KV and 40 mA, respectively.
(§1) HPLC analysis was performed with an Agilent HPLC 1260 series instrument.
(§2) HPLC Method for Stability and Solubility Testing
About 25 mg of free acid Form I was placed at 60° C./capped and 40° C./75% RH (open) conditions for up to 12 days. At day 0 and 7, the sample was dissolved in diluent to prepare 0.5 mg/mL solution for HPLC purity analysis. Solid samples were analyzed by XRPD to check the crystal form at day 12.

[2] = Solubility test in bio-relevant media (SGF, FeSSIF, FaSSIF), HPLC of filtrate, XRPD of filter cake; conditions: for solubility at 24 h / solubility at 0.5 h / solubility at 2 h: 37 °C, thermodynamic from solid; for solubility at 24 h: read-out: Solubility (μg/mL) 24 h; for solubility at 0.5 h: read-out: Solubility (μg/mL) 0.5 h; for solubility at 2 h: read-out: Solubility (μg/mL) 2 h
Experimental: as §1, §2
The solubility of free acid Form I was tested in bio-relevant media (Simulated Gastric Fluid (SGF), Fasted-State Simulated Intestinal Fluid (FaSSIF) and Fed-State Simulated Intestinal Fluid (FeSSIF)) at 37° C. for up to 24 hours. About 15 mg of the sample was weighed into sample vial, and then 5.0 mL of bio-relevant media was added to make suspension. All suspensions prepared were shaken @ 600 rpm with a QQMSC-100 shaker at 37° C. At 0.5, 2 and 24 hours, about 1000 μL of each suspension was filtered and diluted, and then the filtrate was analyzed by HPLC to test the solubility. The pH of the filtrate was measured, and the filter cake was analyzed by XRPD.

[3] = Dynamic Vapor Sorption (DVS)
Excerpt: Moisture sorption/desorption data was collected on a Vsorp Dynamic Moisture Sorption Analyzer (ProUmid GmbH & Co. KG, Germany). The sample was placed into a tared sample chamber and automatically weighed.
The product obtained from preparation method 1 was characterized by XRPD (FIG. 1), TGA, DSC (FIG. 2), DVS (FIG. 3), and ^1H-NMR.

Structure (SMILES): O=C(O)c1ccc2nc(Cc3ccc(-c4cccc(OCc5ccc(Cl)cc5F)n4)cc3F)n(C[C@@H]3CCO3)c2c1 [Free Acid Form I, (S)-2-(4-(6-((4-chloro-2-fluorobenzyl)oxy)pyridin-2-yl)-2-fluorobenzyl)-1-(oxetan-2-ylmethyl)-1H-benzo[d]imidazole-6-carboxylic acid]
- Purity-1 week (Area %) 40° C./75% RH, 1 week ([1]; 40° C./75% RH (open), 1 week, HPLC): 99.56 Area %
- XRPD-12 days 40° C./75% RH ([1]; 40° C./75% RH (open), 12 days): Unchanged
- Physical and chemical stability (in words) ([1]; 60° C./capped and 40° C./75% RH (open), 12 days): physically and chemically stable
- Purity-1 week (Area %) 60° C./Capped, 1 week ([1]; 60° C./capped, 1 week, HPLC): 99.54 Area %
- XRPD-12 days 60° C./Capped ([1]; 60° C./capped, 12 days): Unchanged
- Initial Purity (Area %) ([1]; day 0, HPLC): 99.58 Area %
- solubility at 24 h ([2]; FaSSIF, pH 6.45, fassif, FaSSIF, pH 6.45 (24 h)): 15 µg/mL (≈ 26 µM)
- solubility at 0.5 h ([2]; FaSSIF, pH 6.5, fassif, FaSSIF, pH 6.50 (0 h)): ~5 µg/mL (≈ 8.68 µM)
- solubility at 2 h ([2]; FaSSIF, pH 6.5, fassif, FaSSIF): 6 µg/mL (≈ 10.4 µM)
- solubility at 24 h ([2]; FeSSIF, pH 4.95, fessif, FeSSIF, pH 4.95 (24 h)): 11 µg/mL (≈ 19.1 µM)
- solubility at 0.5 h ([2]; FeSSIF, pH 4.99, fessif, FeSSIF, pH 4.99 (0 h)): ~10 µg/mL (≈ 17.4 µM)
- solubility at 2 h ([2]; FeSSIF, pH 4.99, fessif, FeSSIF): 17 µg/mL (≈ 29.5 µM)
- Solubility in SGF (in words) ([2]; SGF, 37° C.): insoluble
- XRPD pattern after solubility study ([2]; bio-relevant media, 37° C., up to 24 hours): not changed
- XRPD (24 h) ([2]; filter cake after 24 h in FaSSIF, 37° C.): Unchanged
- XRPD (24 h) ([2]; filter cake after 24 h in FeSSIF, 37° C.): Unchanged
- XRPD (24 h) ([2]; filter cake after 24 h in SGF, 37° C.): Unchanged
- Hygroscopicity (DVS) [3]: Slightly
- DVS weight change to 90% RH ([3]; 0 to 90% RH): 0.6%
- Crystal form after DVS test ([3]; after DVS test): remained unchanged
- DVS weight change 0-80% RH ([3]; from 0 to 80% RH): ~0.3%
- Hygroscopicity (DVS) ([3]; listed as crystalline Form I of Compound A free acid): slightly hygroscopic
- Hygroscopicity (DVS) ([3]; listed as free acid Form I): slightly hygroscopic
